# Values joined by “and” are separate entries in the source; they are usually repeats but may differ in a detail not shown here. Equal values may be shown once. After the bases stand the sugars from the 5' end (letter, count) and the backbone: PS all phosphorothioate, else s phosphorothioate and o phosphodiester by linkage. Methylation of C is not given here. e = 2'-O-(2-methoxyethyl) (MOE); k = constrained ethyl (cEt); d = 2'-deoxy (DNA)
# Molecular target: DGAT2
# Conditions: ASO, HepG2, 0.12 µM
row,Sequence,target mRNA inhibition
1,"TGGAACTTCTTCTGGACCCA (sugars e5 d10 e5, PS)",43%
2,"TGGACAAGTCCTGCCCATCT (sugars e5 d10 e5, PS)",72%
3,"TGGACCCATCGGCCCCAGGA (sugars e5 d10 e5, PS)",52%
4,"TGGAGTAGGGCACCAGCCCC (sugars e5 d10 e5, PS)",28%
5,"TGGCACTAAGCTAGGCACAC (sugars e5 d10 e5, PS)",62%
6,"TGTAATGGTTTAGCAAAATT (sugars e5 d10 e5, PS)",26%
7,"TGTCCTTATCAAAATCCCTC (sugars e5 d10 e5, PS)",38%
8,"TGTGTTCCAGTCAAACACCA (sugars e5 d10 e5, PS)",23%
9,"TTCTTCTGGACCCATCGGCC (sugars e5 d10 e5, PS)",44%
10,"TTGCCACTCCCATTCTTTGA (sugars e2 d13 e5, PS)",57%
11,"TTGCCACTCCCATTCTTTGA (sugars e3 d14 e3, PS)",59%
12,"TTGCGGTTCCGCAGGGTGAC (sugars e5 d10 e5, PS)",70%
13,"TTGTGTGTCTTCACCAGCTG (sugars e3 d14 e3, PS)",60%
14,"TTGTGTGTCTTCACCAGCTG (sugars e5 d10 e5, PS)",63% and 73%
15,"TTTCCCATGGGAGAAGATAA (sugars e5 d10 e5, PS)",55%
16,"TTTCGGACCCACTGTGACCT (sugars e5 d10 e5, PS)",65%
17,"TTTGGAACTAATCTGCTGCT (sugars e5 d10 e5, PS)",50%

# Same assay, conditions: ASO, HepG2, 2.5 µM
row,Sequence,target mRNA inhibition
1,"TGGATAGTCGATTTACCAGA (sugars e5 d10 e5, PS)",62%
2,"TGGTGGTTGCAATGTTGCCA (sugars e5 d10 e5, PS)",88% and 80%
3,"TGGTTGCAATGTTGCCATCA (sugars e5 d10 e5, PS)",94% and 78%
4,"TGTGATGACTTCCCAGGGTC (sugars e5 d10 e5, PS)",85%
5,"TTAGCTCTCAGTGAAGCTGG (sugars e5 d10 e5, PS)",93%
6,"TTAGGCATGCTTCCTCCCAC (sugars e5 d10 e5, PS)",78%
7,"TTCCATTTTTTACCCAACCT (sugars e5 d10 e5, PS)",57%
8,"TTCCTTTGAAATCCAATGCA (sugars e5 d10 e5, PS)",63%
9,"TTGTCCTAGTGCCCCAGGGA (sugars e5 d10 e5, PS)",75%
10,"TTTGCTCAGTTCTTCCAACC (sugars e5 d10 e5, PS)",72% and 70%

# Same assay, conditions: ASO, HepG2, 10 µM
row,Sequence,target mRNA inhibition
1,"TGGATAGTCGATTTACCAGA (sugars e5 d10 e5, PS)",90%
2,"TGGTGGTTGCAATGTTGCCA (sugars e5 d10 e5, PS)",92% and 91%
3,"TGGTTGCAATGTTGCCATCA (sugars e5 d10 e5, PS)",94% and 93%
4,"TGTGATGACTTCCCAGGGTC (sugars e5 d10 e5, PS)",76%
5,"TTAGCTCTCAGTGAAGCTGG (sugars e5 d10 e5, PS)",82%
6,"TTAGGCATGCTTCCTCCCAC (sugars e5 d10 e5, PS)",68%
7,"TTCCATTTTTTACCCAACCT (sugars e5 d10 e5, PS)",93%
8,"TTCCTTTGAAATCCAATGCA (sugars e5 d10 e5, PS)",86%
9,"TTGTCCTAGTGCCCCAGGGA (sugars e5 d10 e5, PS)",85%
10,"TTTGCTCAGTTCTTCCAACC (sugars e5 d10 e5, PS)",93% and 92%

# Molecular target: IRF5
# Conditions: ASO, KARPAS-229, 0.44444 µM
row,Sequence,target mRNA inhibition [%]
1,"ACCATTCTATGCCTTT (sugars k3 d10 k3, PS)",44
2,"CAGGTTCTTGGACTCT (sugars kekdddddddddeekk, PS)",34

# Same assay, conditions: ASO, KARPAS-229, 1.33333 µM
row,Sequence,target mRNA inhibition [%]
1,"ACCATTCTATGCCTTT (sugars k3 d10 k3, PS)",60
2,"CAGGTTCTTGGACTCT (sugars kekdddddddddeekk, PS)",48

# Same assay, conditions: ASO, KARPAS-229, 4 µM
row,Sequence,target mRNA inhibition
1,"AAGGGCACAGCGCAGG (sugars k3 d9 k3 e1, PS)",3%
2,"AAGGGCACAGCGCAGG (sugars kekdddddddddeekk, PS)",0%
3,"AAGGGCACAGCGCAGG (sugars kkkdddddddddkeke, PS)",0%
4,"AAGGGCACAGCGCAGG (sugars kkkddddddddkekek, PS)",0%
5,"AATAGGAGTGAGACGA (sugars k3 d10 k3, PS)",25%
6,"AATTTTGCATTCCATA (sugars k3 d10 k3, PS)",41%
7,"AATTTTGTGACTGTAT (sugars k3 d10 k3, PS)",0%
8,"ACCACTGTGTACCCCA (sugars kkdddddddddkekek, PS)",17%
9,"ACCACTGTGTACCCCA (sugars kkkddddddddkdkdk, PS)",40%
10,"ACCATTCTATGCCTTT (sugars k3 d10 k3, PS)",70% and 74%
11,"ACCATTCTATGCCTTT (sugars kddddddddddkekek, PS)",0%
12,"ACCATTCTATGCCTTT (sugars kdddddddddkekeke, PS)",10%
13,"ACCATTCTATGCCTTT (sugars kkddddddddddkeke, PS)",51%
14,"ACTGACACAGGCGGAT (sugars k2 d8 e4 k2, PS)",0%
15,"AGATGGTGTTATCTCC (sugars k3 d9 k3 e1, PS)",0%
16,"AGATGGTGTTATCTCC (sugars kekdddddddddeekk, PS)",0%
17,"AGCTTGGTCTTGACCT (sugars kdddddddddkekeke, PS)",14%
18,"AGCTTGGTCTTGACCT (sugars kkddddddddddkeke, PS)",0%
19,"AGCTTGGTCTTGACCT (sugars kkdddddddddkekek, PS)",8%
20,"AGCTTGGTCTTGACCT (sugars kkkddddddddkekek, PS)",3%
21,"AGGAAGTGAGTCTCAA (sugars kkddddddddkekekk, PS)",20%
22,"AGGAAGTGAGTCTCAA (sugars kkkdddddddddkeke, PS)",21%
23,"AGGAGTGAGACGAGCA (sugars k3 d9 k3 e1, PS)",37%
24,"AGGAGTGAGACGAGCA (sugars kkkddddddddkekek, PS)",24%

row,Sequence,target mRNA inhibition
1,"AGGGCACAGCGCAGGT (sugars k3 d10 k3, PS)",2%
2,"AGGGTGAGTAGGACGA (sugars k3 d10 k3, PS)",19%
3,"AGGTTCTTGGACTCTC (sugars k3 d9 k3 e1, PS)",19%
4,"AGGTTCTTGGACTCTC (sugars kkddddddddddkeke, PS)",41%
5,"AGGTTCTTGGACTCTC (sugars kkddddddddkekekk, PS)",0%
6,"AGTCATGGGCGTGAGGC (sugars kdddddddddkekeked, PS)",17%
7,"AGTGAGTCTCAAACCA (sugars k3 d10 k3, PS)",0%
8,"ATCACCACTGTGTACC (sugars k3 d10 k3, PS)",11%
9,"ATCACCACTGTGTACC (sugars kdddddddddkekeke, PS)",0%
10,"ATCACCACTGTGTACC (sugars kkddddddddddkeke, PS)",0%
11,"ATCACCACTGTGTACC (sugars kkkddddddddkekek, PS)",0%
12,"ATGAGTCATGGGCTGA (sugars k3 d10 k3, PS)",21%
13,"ATGAGTCATGGGCTGA (sugars kekddddddddkeekk, PS)",0%
14,"ATGAGTCATGGGCTGA (sugars kkddddddddkekekk, PS)",0%
15,"ATGAGTCATGGGCTGA (sugars kkkdddddddddkeke, PS)",9%
16,"ATGAGTCATGGGCTGA (sugars kkkddddddddkdkdk, PS)",0%
17,"ATGGTGTTATCTCCGT (sugars kkddddddddkekekk, PS)",0%
18,"CAACATCCATCAATGA (sugars k3 d10 k3, PS)",0%
19,"CAATGCAACATCCATC (sugars k3 d10 k3, PS)",0%
20,"CACATCTCCACATCAG (sugars k3 d10 k3, PS)",45%
21,"CACATCTCCACATCAG (sugars kdddddddddkekeke, PS)",2%
22,"CACATCTCCACATCAG (sugars kekdddddddddeekk, PS)",26%
23,"CACATCTCCACATCAG (sugars kkddddddddddkeke, PS)",23%
24,"CACATCTCCACATCAG (sugars kkkdddddddddkeke, PS)",38%

row,Sequence,target mRNA inhibition
1,"CACATCTCCACATCAG (sugars kkkddddddddkdkdk, PS)",39%
2,"CACTGACACAGGCGGA (sugars kdddddddddddekek, PS)",0%
3,"CACTGACACAGGCGGA (sugars kkddddddddddkeke, PS)",0%
4,"CACTGACACAGGCGGA (sugars kkdddddddddkekek, PS)",0%
5,"CACTGACACAGGCGGA (sugars kkkddddddddkdkdk, PS)",0%
6,"CAGGTTCTTGGACTCT (sugars k3 d10 k3, PS)",0%
7,"CAGGTTCTTGGACTCT (sugars kddddddddddkekek, PS)",0%
8,"CAGGTTCTTGGACTCT (sugars kekdddddddddeekk, PS)",48% and 62%
9,"CAGGTTCTTGGACTCT (sugars kkdddddddddkekek, PS)",0%
10,"CAGGTTCTTGGACTCT (sugars kkkddddddddkdkdk, PS)",0%
11,"CATCAGCTTTCTTGTC (sugars k3 d10 k3, PS)",28%
12,"CATCTCCACATCAGTC (sugars kddddddddddkekek, PS)",25%
13,"CATTCCATATACACAC (sugars k2 d8 e4 k2, PS)",21%
14,"CATTCCATATACACAC (sugars k3 d9 k3 e1, PS)",39%
15,"CATTCCATATACACAC (sugars kkdddddddddkekek, PS)",54%
16,"CATTCCATATACACAC (sugars kkkdddddddddkeke, PS)",28%
17,"CATTCCATATACACAC (sugars kkkddddddddkdkdk, PS)",40%
18,"CATTCCATATACACAC (sugars kkkddddddddkekek, PS)",32%
19,"CATTCTATGCCTTTTA (sugars kkddddddddkekekk, PS)",56%
20,"CCAATGCAACATCCAT (sugars kkddddddddddkeke, PS)",0%
21,"CCAATGCAACATCCAT (sugars kkdddddddddkdkdk, PS)",0%
22,"CCAATGCAACATCCAT (sugars kkdddddddddkekek, PS)",0%

# Same assay, conditions: ASO, KARPAS-229, 12 µM
row,Sequence,target mRNA inhibition [%]
1,"ACCATTCTATGCCTTT (sugars k3 d10 k3, PS)",86
2,"CAGGTTCTTGGACTCT (sugars kekdddddddddeekk, PS)",74
